Common to all, as to assay: two-electrode voltage clamp, Xenopus oocytes
Holding throughout (format): cell-based
Holding throughout (conditions): read-out: EC 50(μM or nM)*
In general terms: In two-electrode clamp one electrode senses voltage and the other passes current.

For one assay, the target named is T1, Dα5 + Dα6 nAChR (Drosophila melanogaster, UniProt Q8T7V5+Q9VL79).
T1 construct: gene nAChRalpha5; intact subunits co-injected as cRNA in Xenopus oocytes with C. elegans RIC-3; pairwise heteromer not proven (may be homomeric Dα5); stoichiometry unknown
T1 sequence (Q8T7V5 1-807): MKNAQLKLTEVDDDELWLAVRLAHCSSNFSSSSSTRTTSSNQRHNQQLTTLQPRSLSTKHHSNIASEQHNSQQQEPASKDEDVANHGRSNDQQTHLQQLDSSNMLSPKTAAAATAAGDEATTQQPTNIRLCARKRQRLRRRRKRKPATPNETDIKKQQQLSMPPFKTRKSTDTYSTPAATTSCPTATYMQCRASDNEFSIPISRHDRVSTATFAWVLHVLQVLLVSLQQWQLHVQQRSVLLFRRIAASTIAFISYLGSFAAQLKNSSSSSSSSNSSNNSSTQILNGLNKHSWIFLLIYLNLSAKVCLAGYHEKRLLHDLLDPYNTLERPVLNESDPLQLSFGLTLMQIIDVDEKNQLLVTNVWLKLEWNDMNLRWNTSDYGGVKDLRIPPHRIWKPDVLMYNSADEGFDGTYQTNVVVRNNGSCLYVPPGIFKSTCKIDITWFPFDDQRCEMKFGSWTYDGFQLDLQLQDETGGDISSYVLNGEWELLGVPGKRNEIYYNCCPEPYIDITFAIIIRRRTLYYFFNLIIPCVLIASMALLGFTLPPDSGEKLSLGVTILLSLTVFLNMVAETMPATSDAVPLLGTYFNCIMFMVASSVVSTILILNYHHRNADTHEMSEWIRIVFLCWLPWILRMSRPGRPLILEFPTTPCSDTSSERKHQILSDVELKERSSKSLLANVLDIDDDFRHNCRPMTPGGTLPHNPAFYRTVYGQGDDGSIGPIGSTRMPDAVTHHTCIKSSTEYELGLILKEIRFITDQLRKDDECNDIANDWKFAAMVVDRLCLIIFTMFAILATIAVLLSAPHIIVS
T1 sequence (Q9VL79 28-494): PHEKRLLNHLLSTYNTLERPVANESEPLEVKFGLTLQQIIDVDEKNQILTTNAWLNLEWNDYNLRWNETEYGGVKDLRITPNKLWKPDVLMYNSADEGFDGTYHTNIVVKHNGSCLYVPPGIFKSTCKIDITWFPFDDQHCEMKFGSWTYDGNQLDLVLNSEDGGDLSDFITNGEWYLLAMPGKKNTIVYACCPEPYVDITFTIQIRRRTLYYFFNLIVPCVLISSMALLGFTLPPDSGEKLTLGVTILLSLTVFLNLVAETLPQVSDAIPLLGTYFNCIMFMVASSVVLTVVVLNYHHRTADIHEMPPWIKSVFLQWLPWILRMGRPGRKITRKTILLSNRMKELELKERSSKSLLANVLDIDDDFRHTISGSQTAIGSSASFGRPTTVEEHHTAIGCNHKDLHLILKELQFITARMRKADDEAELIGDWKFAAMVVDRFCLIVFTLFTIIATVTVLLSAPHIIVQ
From the text:
two-electrode voltage clamp, Xenopus oocytes on Dα5 + Dα6 nAChR

The target in a further assay is T2, homomeric Dα7 nAChR (Drosophila melanogaster, UniProt Q9VWI9).
T2 construct: gene nAChRalpha7; intact subunit; pGEMHE cRNA in Xenopus oocytes with chaperone C. elegans RIC-3; homopentamer
T2 sequence (Q9VWI9 59-560): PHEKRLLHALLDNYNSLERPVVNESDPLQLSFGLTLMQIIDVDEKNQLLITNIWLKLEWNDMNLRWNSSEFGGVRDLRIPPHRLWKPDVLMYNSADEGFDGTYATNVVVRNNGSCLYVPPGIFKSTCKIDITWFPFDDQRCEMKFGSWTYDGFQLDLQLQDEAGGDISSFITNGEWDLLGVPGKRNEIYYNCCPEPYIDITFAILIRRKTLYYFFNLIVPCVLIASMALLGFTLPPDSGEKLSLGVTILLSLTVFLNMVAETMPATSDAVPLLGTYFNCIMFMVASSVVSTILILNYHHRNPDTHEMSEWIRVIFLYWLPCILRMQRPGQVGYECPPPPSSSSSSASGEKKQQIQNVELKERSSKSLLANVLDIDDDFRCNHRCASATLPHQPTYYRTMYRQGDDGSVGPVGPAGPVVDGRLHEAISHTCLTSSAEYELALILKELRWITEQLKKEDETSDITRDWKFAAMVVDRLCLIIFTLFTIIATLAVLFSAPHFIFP
From the text: two-electrode voltage clamp, Xenopus oocytes on homomeric Dα7 nAChR

A further assay concerns the target T3, Dα5 + Dα7 nAChR (Drosophila melanogaster, UniProt Q8T7V5+Q9VWI9).
T3 construct: gene nAChRalpha5; intact subunits co-injected as cRNA in Xenopus oocytes with C. elegans RIC-3; pairwise heteromer not proven (may be homomers); stoichiometry unknown
T3 sequence (Q8T7V5 1-807): T1 sequence (Q8T7V5 1-807)
T3 sequence (Q9VWI9 59-560): T2 sequence (Q9VWI9 59-560)
From the text: two-electrode voltage clamp, Xenopus oocytes on Dα5 + Dα7 nAChR

For another assay, the target named is T4, homomeric Dα5 nAChR (Drosophila melanogaster, UniProt Q8T7V5).
T4 construct: gene nAChRalpha5; full-length, 807 residues, unusually large N-terminal domain; pGEMHE cRNA in Xenopus oocytes with chaperone C. elegans RIC-3; homopentamer
T4 sequence (Q8T7V5 1-807): T1 sequence (Q8T7V5 1-807)
From the text: two-electrode voltage clamp, Xenopus oocytes on homomeric Dα5 nAChR

The record followed here is paper PMC3444433, “The Drosophila nicotinic acetylcholine receptor subunits Dα5 and Dα7 form functional homomeric and heteromeric ion channels” (BMC Neuroscience, 2012).

As for `CC(=O)OCC[N+](C)(C)C` [acetylcholine], the EC50 came out at 8.6 ± 2.4 µM at Dα5 + Dα6 nAChR, 6.7 ± 1.7 µM on homomeric Dα7 nAChR, 1.6 ± 0.3 µM at Dα5 + Dα7 nAChR and 8.8 ± 2.5 µM at homomeric Dα5 nAChR.
